The source of these data is ChEMBL document CHEMBL3351436, “Structure-activity studies of (-)-epigallocatechin gallate derivatives as HCV entry inhibitors” (Bioorg Med Chem Lett, 2014).

pIC50: −log10 of the molar value. Calls of active or inactive are those of the source. The calls are words filed in the database; no cut-off is given here.

Data set [1] deals with Hepatitis C virus. The experiment in a line: Antiviral activity against HCV genotype 1a assessed as inhibition of viral entry into Huh7 cells treated at 50 uM for 2 hr followed by 28 hrs incubation period in compound-free medium by immunofluorescence assay. Type of data set: functional, cell-based. The following applies: Hepacivirus hominis, subtype 1a, Huh-7.
Data set [2] deals with Hepatitis C virus. The data set can be described thus: Antiviral activity against HCV genotype 1a assessed as inhibition of viral entry into Huh7 cells treated for 2 hr followed by 28 hrs incubation period in compound-free medium by immunofluorescence assay. Type of data set: functional, cell-based, Hepacivirus hominis. The following applies: subtype 1a, Huh-7.
Data set [3] in a line: Cytotoxicity against human HuH7 cells assessed as reduction cell viability up to 1 mM after 48 to 72 hrs by MTS assay. Type of data set: cell-based. The following applies: huh-7. In general terms: Tetrazolium assays rely on reduction of a dye to a coloured formazan, in cell work by metabolically active cells.

As a reminder, the pIC50 is the IC50 on a negative log10 scale, so that one unit is a factor of ten.

In the case of `O=C(O[C@H]1Cc2c(O)cc(O)cc2O[C@@H]1c1ccccc1)c1cc(O)c(O)c(O)c1` (racemic), the inhibition entry in the data set on Hepatitis C virus [1] was “inactive”. As to `O=C(O[C@@H]1Cc2c(O)cc(O)cc2O[C@@H]1c1cc(O)c(O)c(O)c1)c1cc(O)c(O)c(O)c1` [EPIGALOCATECHIN GALLATE], the inhibition entry in the data set on Hepatitis C virus [1] is “Active”. The pIC50 with Hepatitis C virus [2] is 4.70. As for `CC1Oc2ccc(C#N)cc2C=C1C(=O)N[C@H]1CC[C@@H](N)CC1` (some centres undefined), the inhibition result with Hepatitis C virus [1] is “inactive”. Turning to `O=C(O[C@@H]1Cc2c(O)cc(O)cc2O[C@@H]1c1cc(O)c(O)c(O)c1)c1ccncc1`, the inhibition result in the data set with Hepatitis C virus [1] was “inactive”. The same measure, in the same setting: under `O=C(O[C@@H]1Cc2ccccc2O[C@@H]1c1ccccc1)c1cc(O)c(O)c(O)c1` (racemic) stands “inactive”; under `CC1Oc2ccc(C#N)cc2C=C1C(=O)NC1CCNCC1` (centres undefined), “inactive”. In the case of `O=C(O[C@@H]1Cc2c(O)cc(O)cc2O[C@@H]1c1cc(O)c(O)c(O)c1)c1ccc(F)c(F)c1`, the inhibition entry in the data set on Hepatitis C virus [1] is “Active”. Also, in data set [3], the Activity result is listed as “Non-toxic”. In addition, in the data set with Hepatitis C virus [2], the negative logarithm of the IC50 (pIC50) was 5.16.

As for `O=C(O[C@@H]1Cc2c(O)cc(O)cc2O[C@@H]1c1cc(O)c(O)c(O)c1)c1ccccc1`, the inhibition result with Hepatitis C virus [1] is “Active”. The Activity entry in data set [3] was “Non-toxic”. Further, in the data set on Hepatitis C virus [2], the negative logarithm of the IC50 (pIC50) was 4.57. Turning to `O=C(O[C@@H]1Cc2c(O)cc(O)cc2O[C@H]1c1cc(O)c(O)c(O)c1)c1cc(O)c(O)c(O)c1`, the inhibition result in the data set on Hepatitis C virus [1] was “Active”.
